Experimental data: ChEMBL document CHEMBL2331082, “Cinnamic acid derivatives as inhibitors for chorismatases and isochorismatases” (Bioorg Med Chem Lett, 2013)

Key:
Chorismatase [1] = target: T1, Chorismatase (Streptomyces hygroscopicus subsp. ascomyceticus, UniProt Q9KID9); assay: Inhibition of Streptomyces hygroscopicus subsp. ascomyceticus chorismatase FkbO expressed in Escherichia coli BL21(DE3) using chorismate as substrate after 5 mins by LDH-coupled spectrophotometric assay
T1 sequence (Q9KID9 whole entry): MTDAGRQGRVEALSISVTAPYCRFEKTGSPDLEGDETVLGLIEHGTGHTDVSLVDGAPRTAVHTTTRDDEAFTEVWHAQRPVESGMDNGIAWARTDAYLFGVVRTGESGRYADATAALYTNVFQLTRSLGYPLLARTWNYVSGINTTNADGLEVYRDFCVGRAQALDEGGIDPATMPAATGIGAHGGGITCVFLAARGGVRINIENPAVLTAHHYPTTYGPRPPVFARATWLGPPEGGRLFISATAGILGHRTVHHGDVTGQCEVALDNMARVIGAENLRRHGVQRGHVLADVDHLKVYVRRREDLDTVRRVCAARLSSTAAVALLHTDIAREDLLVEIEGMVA

[2] = Inhibition of Escherichia coli EntB expressed in Escherichia coli BL21(DE3) using chorismate as substrate after 5 mins by LDH-coupled spectrophotometric assay
[3] = Inhibition of Streptomyces hygroscopicus hyg5 expressed in Escherichia coli BL21(DE3) using chorismate as substrate after 5 mins by LDH-coupled spectrophotometric assay
Chorismatase [4] = target: T1, Chorismatase; assay: Competitive inhibition of Streptomyces hygroscopicus subsp. ascomyceticus chorismatase FkbO expressed in Escherichia coli BL21(DE3) using chorismate as substrate
[5] = Competitive inhibition of Escherichia coli EntB expressed in Escherichia coli BL21(DE3) using chorismate as substrate

| SMILES | IC50 (Chorismatase [1]) [µM] | IC50 [2] [µM] | IC50 [3] [µM] | Ki (Chorismatase [4]) [µM] | Ki [5] [µM] |
| --- | --- | --- | --- | --- | --- |
| O=C(O)/C=C/c1cccc(C(=O)O)c1 | 45000 | 209 | 68500 | 19600 | 122 |
| O=C(O)CCc1cccc(C(=O)O)c1 | 1090 | 472 | 1250 | 1020 | 282 |
